Data on 13 compounds can be found in ChEMBL document CHEMBL1909046, “DrugMatrix in vitro pharmacology data”.

Data set [1] addresses T1, Interstitial collagenase (Homo sapiens, UniProt P03956).
T1 sequence (P03956 whole entry): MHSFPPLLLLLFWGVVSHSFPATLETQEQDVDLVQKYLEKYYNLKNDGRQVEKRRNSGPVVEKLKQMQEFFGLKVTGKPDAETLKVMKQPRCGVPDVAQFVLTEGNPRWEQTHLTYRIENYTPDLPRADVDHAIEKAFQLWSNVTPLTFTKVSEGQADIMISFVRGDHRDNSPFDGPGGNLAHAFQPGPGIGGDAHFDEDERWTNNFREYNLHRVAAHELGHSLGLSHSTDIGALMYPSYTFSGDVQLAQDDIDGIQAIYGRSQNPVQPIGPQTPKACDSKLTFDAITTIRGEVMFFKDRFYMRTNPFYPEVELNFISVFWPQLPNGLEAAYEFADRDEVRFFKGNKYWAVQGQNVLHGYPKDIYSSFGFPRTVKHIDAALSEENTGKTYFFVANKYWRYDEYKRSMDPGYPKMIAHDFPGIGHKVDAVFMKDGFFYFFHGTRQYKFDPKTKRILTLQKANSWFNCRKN
The experiment in a line: biochemical. It counts as tissue-based, Rheumatoid synovial fibroblasts.

For data set [2], the target named is Epidermal growth factor receptor (Homo sapiens, UniProt P00533). Kind of data set: DRUGMATRIX: Protein Tyrosine Kinase, EGF Receptor enzyme inhibition (substrate: Poly(Glu:Tyr)). It counts as cell-based, Insect cells. As to conditions: Not Active = under 50% inhibition at 10 µM.
The nature of data set [3]: DRUGMATRIX: Imidazoline I2, Central radioligand binding (ligand: [3H] Idazoxan). As to conditions: Not Active = under 50% inhibition at 10 µM. The data set is classed as cell membranes, Rattus norvegicus, Wistar, Cerebral cortex, Membrane.
Data set [4] can be described thus: DRUGMATRIX: Sigma2 radioligand binding (ligand: [3H] Ifenprodil). The data set is classed as cell membranes, Rattus norvegicus, Wistar, Brain, Membrane. As to conditions: Not Active = under 50% inhibition at 10 µM.
Data set [5] has as its target Cytochrome P450 2D6 (Homo sapiens, UniProt P10635). To be noted: bti-tn-5b1-4. Further: in other assays of this panel Not Active means under 50% inhibition at 10 µM.
A short description of data set [6]: DRUGMATRIX: Phosphodiesterase PDE3 enzyme inhibition (substrate: [3H]cAMP + cAMP). The data set is classed as tissue-based, Homo sapiens. To be noted: platelet, Not Active = under 50% inhibition at 10 µM.

Cytochrome P450 2D6, sequence (P10635 whole entry): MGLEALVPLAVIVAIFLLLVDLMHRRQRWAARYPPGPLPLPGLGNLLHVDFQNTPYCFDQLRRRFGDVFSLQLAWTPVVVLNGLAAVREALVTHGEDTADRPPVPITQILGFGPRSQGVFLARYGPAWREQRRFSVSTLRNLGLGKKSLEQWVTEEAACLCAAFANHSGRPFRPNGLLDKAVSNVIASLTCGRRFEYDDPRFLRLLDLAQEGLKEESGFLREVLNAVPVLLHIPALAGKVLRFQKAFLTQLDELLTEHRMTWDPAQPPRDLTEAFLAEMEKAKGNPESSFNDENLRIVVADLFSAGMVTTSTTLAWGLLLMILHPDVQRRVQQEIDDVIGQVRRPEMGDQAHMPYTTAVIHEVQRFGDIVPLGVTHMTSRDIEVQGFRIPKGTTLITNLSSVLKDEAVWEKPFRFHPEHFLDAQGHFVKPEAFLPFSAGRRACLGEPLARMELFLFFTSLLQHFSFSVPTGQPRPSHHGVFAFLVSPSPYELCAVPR

In the case of `C[N+](C)(C)CCOP(=O)([O-])OC[C@H](O)CO`, the IC50 result in data set [1], in data set [2] (insect cells), in data set [3], in data set [4], in data set [5] and in data set [6] was “Not Active” throughout. Moreover, the Ki result in data set [3], in data set [4], in data set [5] and in data set [6] was “Not Active” in each case.

For `Clc1cc(Cl)c(OCC#CI)cc1Cl` [HALOPROGIN], the IC50 entry in data set [1], in data set [2] (insect cells), in data set [3], in data set [4], in data set [5] and in data set [6] was “Not Active” each time. The Ki entry in data set [3], in data set [4], in data set [5] and in data set [6] was “Not Active” each time.

As to `C[N+](C)(C)CCOC(N)=O.[Cl-]` [CARBACHOL], the IC50 result in data set [1], in data set [2] (insect cells), in data set [3], in data set [4], in data set [5] and in data set [6] was “Not Active” throughout. The Ki result in data set [3], in data set [4], in data set [5] and in data set [6] was “Not Active” each time.

Regarding `O=C1c2ccccc2C(=O)C1c1ccccc1` [PHENINDIONE], the IC50 result in data set [1], in data set [2] (insect cells), in data set [3], in data set [4], in data set [5] and in data set [6] was “Not Active” each time. Also, the Ki entry in data set [3], in data set [4], in data set [5] and in data set [6] was “Not Active” throughout.

For the compound `NC(N)=Nc1nc(CSCCC(N)=NS(N)(=O)=O)cs1` [FAMOTIDINE], the IC50 entry in data set [1], in data set [2] (insect cells), in data set [3], in data set [4], in data set [5] and in data set [6] was “Not Active” in each case. The Ki result in data set [3], in data set [4], in data set [5] and in data set [6] was “Not Active” throughout.

As to `Cc1ccnc2c1NC(=O)c1cccnc1N2C1CC1` [NEVIRAPINE], the IC50 result in data set [1], in data set [2] (insect cells), in data set [3], in data set [4], in data set [5] and in data set [6] was “Not Active” throughout. Further, the Ki entry in data set [3], in data set [4], in data set [5] and in data set [6] was “Not Active” each time.

Consider `CO[C@H]1O[C@@H]2O[C@@]3(C)CC[C@H]4[C@H](C)CC[C@@H]([C@H]1C)[C@@]24OO3`, for which the IC50 entry in data set [1], in data set [2] (insect cells), in data set [3], in data set [4], in data set [5] and in data set [6] was “Not Active” throughout. The Ki entry in data set [3], in data set [4], in data set [5] and in data set [6] was “Not Active” in each case.

Turning to `CN(CCOc1ccc(C[C@H](Nc2ccccc2C(=O)c2ccccc2)C(=O)O)cc1)c1ccccn1`, the 50% inhibitory concentration (IC50) result is “Not Active” in data set [1]; 10.9 µM in data set [2] (read-out: IC50); “Not Active” in data set [3]; “Not Active” in data set [4]; “Not Active” in data set [5]; 19.4 µM in data set [6] (read-out: IC50). Besides, the Ki result in data set [3], in data set [4] and in data set [5] was “Not Active” each time.

For the compound `c1ccc2sc(SSc3nc4ccccc4s3)nc2c1` [BENZOTHIAZYL DISULFIDE], the concentration for half-maximal inhibition (IC50) result in data set [1], in data set [2] (insect cells), in data set [3], in data set [4], in data set [5] and in data set [6] was “Not Active” throughout. The Ki entry in data set [3], in data set [4], in data set [5] and in data set [6] was “Not Active” each time.

As for `COc1ccc(C[C@H](N)C(=O)N[C@H]2[C@@H](O)[C@H](n3cnc4c(N(C)C)ncnc43)O[C@@H]2CO)cc1` [PUROMYCIN], the IC50 result in data set [1], in data set [2] (insect cells), in data set [3], in data set [4], in data set [5] and in data set [6] was “Not Active” each time. The Ki result in data set [3], in data set [4], in data set [5] and in data set [6] was “Not Active” each time.

For the compound `O=c1[nH]c2ccccc2c2ccccc12`, the concentration for half-maximal inhibition (IC50) entry in data set [1], in data set [2] (insect cells), in data set [3], in data set [4], in data set [5] and in data set [6] was “Not Active” each time. In addition, the Ki entry in data set [3], in data set [4], in data set [5] and in data set [6] was “Not Active” each time.

Consider COPPER(II) OXIDE, for which the IC50 result in data set [1], in data set [2] (insect cells), in data set [3], in data set [4], in data set [5] and in data set [6] was “Not Active” in each case. The Ki result in data set [1], in data set [2] (insect cells), in data set [3], in data set [4], in data set [5] and in data set [6] was “Not Active” throughout.

On to `CC12CCC(CC1)C(C)(C)O2` [EUCALYPTOL], for which the IC50 result in data set [1], in data set [2] (insect cells), in data set [3], in data set [4], in data set [5] and in data set [6] was “Not Active” in each case. Further, the Ki result in data set [3], in data set [4], in data set [5] and in data set [6] was “Not Active” throughout.
